The target of assay [1] is T1, Endoribonuclease toxin MazF (Escherichia coli K-12, UniProt P0AE70).
T1 sequence (P0AE70 whole entry): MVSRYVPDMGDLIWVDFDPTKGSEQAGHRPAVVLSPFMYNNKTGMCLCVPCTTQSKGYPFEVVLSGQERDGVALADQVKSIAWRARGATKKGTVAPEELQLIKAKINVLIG
In words: activation of MazEF endoribonuclease cleavage – biochemical, fluorescence, single-stranded RNA substrate, uHTS hits, dose response (AID 588481). In kind it is functional.

For assay [2], the target named is T1, Endoribonuclease toxin MazF. In words: substrate-only fluorescence increase artefacts – biochemical, single-stranded RNase substrate, counter-screen for MazEF activator project, dose response (AID 588502). In kind it is functional. In general terms: Counterscreens check selectivity or assay interference.
For the next assay, the target named is T2, Streptokinase A (Streptococcus pyogenes serotype M1, UniProt P10520).
T2 sequence (P10520 whole entry): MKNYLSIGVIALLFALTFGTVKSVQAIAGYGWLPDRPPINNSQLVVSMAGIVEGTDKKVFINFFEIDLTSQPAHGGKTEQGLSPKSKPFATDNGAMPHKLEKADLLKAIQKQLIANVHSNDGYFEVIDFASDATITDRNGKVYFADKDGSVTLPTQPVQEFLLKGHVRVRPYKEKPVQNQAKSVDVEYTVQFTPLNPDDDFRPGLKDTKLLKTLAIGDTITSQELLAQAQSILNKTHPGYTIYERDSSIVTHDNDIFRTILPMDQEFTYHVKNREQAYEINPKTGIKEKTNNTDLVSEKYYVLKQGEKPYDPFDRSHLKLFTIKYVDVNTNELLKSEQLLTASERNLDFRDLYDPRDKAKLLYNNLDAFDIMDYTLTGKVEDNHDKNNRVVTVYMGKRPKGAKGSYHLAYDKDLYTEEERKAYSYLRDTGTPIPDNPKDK
In words: viability-normalized secreted streptokinase activity reduction – plasminogen activation absorbance, OD405, dose response (AID 1914).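 Note: secreted streptokinase activity via plasminogen activation per viability signal from cell pellet.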 It is filed as functional, Streptococcus pyogenes M1 GAS.

In assay [3] the test system is Streptococcus sp. 'group A'. In words: Streptococcus pyogenes SK(-)GAS viability under kanamycin – luminescence, BacTiterGlo, confirmation, counter-screen for streptokinase expression inhibitor project, dose response (AID 1900). It is filed as functional, organism-based.
The nature of assay [4]: NIH-3T3 fibroblast cytotoxicity, dose response, cytotoxicity control, cell-based, fluorescence, Alamar Blue, secondary assay (AID 2327).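 Note: NIH-3T3 mouse fibroblasts cultured with fluconazole at 8 µg/mL.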 In kind it is functional. For orientation: The colour change of resazurin is a common sign of viable cells or microbes.
A further assay concerns Streptococcus. In words: GAS UMAA2166 growth inhibition – luminescence, BacTiterGlo, counter-screen for streptokinase expression inhibitor project, dose response (AID 1915).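 Note: potency for reduction of bacterial viability or growth.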 In kind it is functional, organism-based.
Assay [5] is described as follows: fluconazole-exposed Candida albicans growth modulators – fluorescence, retest, confirmation (AID 2467). It is filed as functional, cell-based.
A short description of assay [6]: blockers of HIV-1 ZM109 envelope-driven cell-cell fusion – HeLa effector, CEM target cells, luciferase, cherry-pick, dose response (AID 652058).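 Note: luciferase signal from HIV-1 Env mediated cell-cell fusion of effector and target cells.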 It is filed as functional, cell-based.
Assay [7] in a line: off-target signal loss in HeLa-CEM21 co-culture – HeLa F-luc CTL cells, cherry-picked, counter-screen for HIV-1 Env fusion inhibitor project, dose response (AID 652040).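 Note: potency for signal decrease marking cytotoxic or nonspecific inhibition.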 It is filed as functional, cell-based.
The nature of assay [8]: HIV-1 AD8 envelope cell-cell fusion blockers – cherry-pick, dose response (AID 652062).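 Note: luciferase signal from cell-cell fusion driven by HIV-1 clade B AD8 Env; potency is for inhibitors of fusion seen as a drop in luminescence.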 In kind it is functional, cell-based.
A further assay has as its target T3, Cytochrome P450 1A2 (Homo sapiens, UniProt P05177).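 Note: PubChem cytochrome P450 panel assay, CYP1A2 panel member.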
T3 sequence (P05177 whole entry): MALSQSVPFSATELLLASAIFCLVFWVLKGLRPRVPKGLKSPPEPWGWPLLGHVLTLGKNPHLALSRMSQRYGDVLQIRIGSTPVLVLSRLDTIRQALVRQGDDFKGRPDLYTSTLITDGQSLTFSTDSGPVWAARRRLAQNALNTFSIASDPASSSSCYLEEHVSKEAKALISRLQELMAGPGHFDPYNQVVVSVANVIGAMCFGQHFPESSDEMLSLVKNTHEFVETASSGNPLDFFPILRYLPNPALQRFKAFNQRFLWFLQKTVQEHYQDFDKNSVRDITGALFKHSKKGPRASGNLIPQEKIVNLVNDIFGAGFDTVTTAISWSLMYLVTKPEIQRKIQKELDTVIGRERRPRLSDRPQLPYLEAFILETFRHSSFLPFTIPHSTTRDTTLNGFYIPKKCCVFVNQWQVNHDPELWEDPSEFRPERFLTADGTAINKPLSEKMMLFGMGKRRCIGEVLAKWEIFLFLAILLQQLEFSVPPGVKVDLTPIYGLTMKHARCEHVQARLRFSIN

The nature of assay [9]: blockers of HIV-1 envelope-mediated cell-cell fusion – cherry-pick, dose response (AID 652057). It is filed as functional, cell-based.
Assay [10] deals with T4, RNA-binding protein pos-1 (Caenorhabditis elegans, UniProt G5EF15).
T4 sequence (G5EF15 whole entry): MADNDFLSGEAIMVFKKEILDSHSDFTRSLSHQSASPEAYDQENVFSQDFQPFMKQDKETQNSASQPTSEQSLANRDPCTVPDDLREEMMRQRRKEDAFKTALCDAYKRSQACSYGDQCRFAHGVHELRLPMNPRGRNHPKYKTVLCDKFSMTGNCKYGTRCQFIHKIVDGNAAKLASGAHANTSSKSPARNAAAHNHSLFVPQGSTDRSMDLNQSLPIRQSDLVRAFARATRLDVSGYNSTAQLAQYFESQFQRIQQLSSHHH
In words: disruptors of C. elegans POS-1 RNA interaction – biochemical, fluorescence polarization, dose response (AID 1964).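 Note: purified POS-1 fused to maltose binding protein made in E. coli; potency of compounds blocking POS-1 binding to fluorescent RNA.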

Assay [11] has as its target T5, Zinc finger protein mex-5 (Caenorhabditis elegans, UniProt Q9XUB2).
T5 sequence (Q9XUB2 whole entry): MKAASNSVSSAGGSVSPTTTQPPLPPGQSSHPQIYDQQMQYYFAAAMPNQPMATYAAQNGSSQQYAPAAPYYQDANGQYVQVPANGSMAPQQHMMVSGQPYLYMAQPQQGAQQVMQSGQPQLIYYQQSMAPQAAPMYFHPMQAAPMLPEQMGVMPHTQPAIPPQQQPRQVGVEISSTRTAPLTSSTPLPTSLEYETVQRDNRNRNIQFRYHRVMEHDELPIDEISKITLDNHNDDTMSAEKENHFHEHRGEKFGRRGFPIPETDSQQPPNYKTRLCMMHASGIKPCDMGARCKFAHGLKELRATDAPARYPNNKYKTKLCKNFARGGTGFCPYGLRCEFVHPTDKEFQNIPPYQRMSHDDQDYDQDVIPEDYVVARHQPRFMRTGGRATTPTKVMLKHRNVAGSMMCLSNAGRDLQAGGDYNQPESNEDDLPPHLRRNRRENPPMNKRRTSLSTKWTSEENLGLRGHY
In words: potency of MEX-5 RNA-binding blockers – biochemical, C. elegans, fluorescence polarization, dose response (AID 1960). A general note: In fluorescence polarisation assays a small probe gives low polarisation when free and higher when bound to something large.

A further assay deals with HEK293. In words: EBV LMP1 TES2 canonical NF-kB signalling blockers – cell-based, HEK293, luciferase, cherry-pick, dose response (AID 588343). In kind it is functional. The settings on record: Homo sapiens.
For assay [12], the target named is T6, Replicative DNA helicase DnaB (Mycobacterium tuberculosis, UniProt P9WMR3).
T6 sequence (P9WMR3 whole entry): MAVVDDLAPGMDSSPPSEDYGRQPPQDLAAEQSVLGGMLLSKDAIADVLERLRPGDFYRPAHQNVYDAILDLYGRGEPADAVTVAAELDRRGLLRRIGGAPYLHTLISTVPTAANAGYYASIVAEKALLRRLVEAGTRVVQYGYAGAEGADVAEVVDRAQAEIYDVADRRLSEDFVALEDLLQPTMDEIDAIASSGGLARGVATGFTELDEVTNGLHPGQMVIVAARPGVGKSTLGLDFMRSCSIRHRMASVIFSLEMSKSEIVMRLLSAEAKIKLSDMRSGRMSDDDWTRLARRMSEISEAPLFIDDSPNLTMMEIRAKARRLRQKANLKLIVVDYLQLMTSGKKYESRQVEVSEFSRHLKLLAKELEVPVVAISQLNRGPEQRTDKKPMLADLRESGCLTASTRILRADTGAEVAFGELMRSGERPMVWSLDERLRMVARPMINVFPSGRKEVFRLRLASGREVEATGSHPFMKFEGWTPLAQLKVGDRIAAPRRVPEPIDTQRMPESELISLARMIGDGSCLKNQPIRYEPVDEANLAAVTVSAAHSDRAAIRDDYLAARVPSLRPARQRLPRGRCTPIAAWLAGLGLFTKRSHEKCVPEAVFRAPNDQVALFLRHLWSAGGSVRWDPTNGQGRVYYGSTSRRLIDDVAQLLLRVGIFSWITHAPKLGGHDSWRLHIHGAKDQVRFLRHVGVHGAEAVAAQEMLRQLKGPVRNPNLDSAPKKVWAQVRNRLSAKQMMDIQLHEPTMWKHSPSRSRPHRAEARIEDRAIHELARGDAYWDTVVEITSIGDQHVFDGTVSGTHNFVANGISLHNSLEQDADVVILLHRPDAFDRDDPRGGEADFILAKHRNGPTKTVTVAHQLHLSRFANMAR
In words: DnaB intein splicing inhibitors, dose response, biochemical, cell-free fluorescence (AID 449749). It is filed as functional.

Another assay has as its target T7, Protein RecA (Mycobacterium tuberculosis, UniProt P9WHJ3).
T7 sequence (P9WHJ3 whole entry): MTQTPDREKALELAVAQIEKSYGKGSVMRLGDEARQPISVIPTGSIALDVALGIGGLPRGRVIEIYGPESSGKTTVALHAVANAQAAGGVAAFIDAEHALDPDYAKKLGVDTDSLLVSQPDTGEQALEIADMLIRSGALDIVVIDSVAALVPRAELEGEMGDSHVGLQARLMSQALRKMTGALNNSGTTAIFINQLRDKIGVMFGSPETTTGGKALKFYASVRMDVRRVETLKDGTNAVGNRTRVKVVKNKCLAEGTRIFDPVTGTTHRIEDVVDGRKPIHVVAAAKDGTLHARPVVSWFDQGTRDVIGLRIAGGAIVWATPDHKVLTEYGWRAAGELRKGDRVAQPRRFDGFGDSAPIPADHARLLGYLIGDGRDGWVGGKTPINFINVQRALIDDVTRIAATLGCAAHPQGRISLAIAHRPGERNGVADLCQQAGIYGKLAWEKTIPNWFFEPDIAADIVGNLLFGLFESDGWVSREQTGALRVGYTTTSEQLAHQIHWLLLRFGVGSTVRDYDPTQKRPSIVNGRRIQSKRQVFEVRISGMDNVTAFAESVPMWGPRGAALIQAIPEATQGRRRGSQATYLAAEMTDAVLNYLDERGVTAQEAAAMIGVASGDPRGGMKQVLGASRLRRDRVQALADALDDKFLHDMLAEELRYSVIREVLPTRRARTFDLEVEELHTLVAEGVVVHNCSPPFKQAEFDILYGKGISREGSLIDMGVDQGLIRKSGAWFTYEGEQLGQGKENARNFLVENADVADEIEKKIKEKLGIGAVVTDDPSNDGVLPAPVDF
In words: Fluorescence Cell-Free Homogeneous Dose Retest to Identify Inhibitors of RecA-Intein Splicing Activity. [Related pubchem assays (depositor defined):AID2097, AID2223, AID489010, AID492950]. It is filed as functional.

The source made the active and inactive calls. A value given as a limit tells only on which side of the number the result lay.

Usually EC50 stands for the concentration needed to bring the measured effect to its halfway point. On to `CSc1nnc(N2C(=O)C(O)=C(C(=O)c3ccc(C)o3)C2c2ccc(C)cc2)s1` (stereo not given), for which the EC50 in assay [1] is 9.87 µM (active); in assay [2] it was > 99 µM (inactive).

In the case of `NNS(=O)(=O)c1ccc(Sc2ccccn2)c([N+](=O)[O-])c1`, the results for the EC50 in [1] and in [2] were 52.6 µM (inactive) and > 99 µM (inactive), respectively.

For `Cc1ccc(O)c(C2=NNC(c3ccc(Cl)cc3)C2)c1` (stereo not given), the EC50 at Streptokinase A was > 150 µM (not active); in assay [3] it was 4.36 µM (active); in assay [4], > 160 µM (inactive); in the assay on Streptococcus it was 9.12 µM (active); in assay [5] it was 3.23 µM (active).

What is called AC50 is the concentration giving half of the maximal activity seen. In the case of `O=C(NC1CCCCC1)C(c1cccs1)N(Cc1cccs1)C(=O)c1ccco1` (stereo not given), the AC50 in assay [6] is 5.68 µM (active); in [7], 48.2 µM (active); in [8], 1.55 µM (active); on Cytochrome P450 1A2, 20 µM (inconclusive); in assay [9], 6.72 µM (active).

Regarding `Cc1ccc(-c2cc(-c3ccccc3)nc(N)c2C#N)o1`, the EC50 in [1] was > 99 µM (inactive); in assay [2], 44.6 µM (inactive).

As for `CC1CC(=O)C2=C(C1)OC(N)=C(C#N)C2c1coc2ccccc2c1=O` (stereo not given), the EC50 in assay [1] and in [2] was > 99 µM (inactive) throughout.

For the molecule `COc1ccc2c(c1)S/C(=C\C(=O)c1ccncc1)N2C`, the EC50 is > 300 µM (not active) in [10], > 99 µM (inactive) in [1], > 99 µM (inactive) in assay [2] and > 300 µM (not active) in assay [11].

As to `CCN(Cc1nc(O)c2ccc(Cl)cc2n1)C(=O)c1cc(C2CC2)nn1-c1ccccc1`, the AC50 is 5.14 µM (active) in assay [6], 6.32 µM (active) in assay [7], 4.62 µM (active) in [8] and 2.67 µM (active) in assay [9].

For `O=C(c1ccc(Cl)cc1)N1CCN(CCOc2ccccc2)CC1`, the AC50 with HEK293 is > 350 µM (inactive).

With `Cc1nc(SCC(=O)Nc2cc(C)on2)c2c3c(sc2n1)CCCC3`, the EC50 in assay [1] and in assay [2] was > 99 µM (inactive) each time.

Turning to `COc1cc(/C=C2/SC(=S)N(Cc3ccccc3)C2=O)ccc1OCC(=O)O`, the values for the AC50 (in assay [12]; in the assay with HEK293) were 4.22 µM (active) and 45.2 µM (active), respectively. The EC50 on Protein RecA is 6.85 µM (active).

For the molecule `O=C(Nc1ccccc1)c1nn(-c2ccccc2)c(=O)cc1C(F)(F)F`, the concentration for a half-maximal effect (EC50) in [10] is > 300 µM (not active); in assay [1] it was > 99 µM (inactive); in [2], > 99 µM (inactive); in assay [11] it was > 300 µM (not active).

For `C[C@H]1CN([C@@H](C)CO)S(=O)(=O)c2ccc(Br)cc2O[C@H]1CN(C)Cc1ccc(F)cc1`, the AC50 in assay [6] was 5.86 µM (active); in assay [8] it was 30.9 µM (active); in assay [9] it was 3.67 µM (active).

Consider `COc1ccc(-c2c(C)nn3c(C(F)(F)F)cc(C)nc23)cc1`, for which the AC50 in [7] was 17.8 µM (active).
